What was measured:
[1] = molecular target: T1, CaM (Bos taurus, UniProt P62157); test: Pull-down assay with immobilized protein and LSM libraries; type: binding, bovine; conditions: H14 library; 1:2 stoichiometry assumed; read-out: Surface mapping KD (apparent)
T1 construct: made in house; host or cells: E. coli BL21 (DE3)
Outline: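 His-tagged protein immobilized on Co-NTA resin, equilibrated 30 min at room temperature with LSM sublibraries (64 members, […]), equimolar protein to total probe. CaM buffer: 20 mM HEPES pH 7.4, 150 mM NaCl, 5 mM CaCl2. Bound fractions from HPLC-MS loss of unbound probe versus protein-free resin control; Kd derived.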

[2] = molecular target: T2, Gal-1 (Homo sapiens, UniProt P09382); test: as above; type: binding; conditions: H14 library; 1:1 binding assumed; read-out: Surface mapping KD (apparent)
T2 construct: made in house; host or cells: E. coli BL21(DE3)
Outline: (§1)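 His-tagged protein immobilized on Co-NTA resin (64 µM) in 20 mM HEPES pH 7.4, 150 mM NaCl, equilibrated 30 min at room temperature with foldamer LSM sublibraries at equimolar total concentration. Unbound fractions quantified by HPLC-MS versus protein-free resin control; apparent KD assumes 1:1 binding.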

[3] = molecular target: T3, S100A4 (Homo sapiens, UniProt P26447); test: as above; type: binding; conditions: for Kd: H14 library, 1:1 binding assumed, read-out: Surface mapping KD (apparent); for Affinity class of probe (high, medium, low) in pull-down: H14 probes selected for validation
T3 construct: made in house; host or cells: Escherichia coli BL21(DE3)
Outline: (§2)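 Buffers were HEPES pH 7.4 with 150 mM NaCl, plus 1 mM TCEP and 1 mM CaCl2 (50 mM HEPES) for S100A4 and S100B, 1 mM TCEP for Gal-1, and no additive for RecQ-WH. Immobilized protein at 64 µM was equilibrated 30 min with the LSM sublibrary, and unbound probes were measured by LC-MS.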

[4] = molecular target: T4, S100B (Homo sapiens, UniProt P04271); test: as above; type: binding; conditions: for Kd: H14 library, 1:1 binding assumed, read-out: Surface mapping KD (apparent); for Affinity class of probe (high, medium, low) in pull-down: H14 probes selected for validation
T4 construct: made in house; host or cells: Escherichia coli BL21(DE3)
T4 sequence (P04271 1-92): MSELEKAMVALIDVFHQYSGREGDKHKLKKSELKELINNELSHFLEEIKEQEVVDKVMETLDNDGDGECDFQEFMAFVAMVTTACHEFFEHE
Outline: as §2

[5] = molecular target: T5, RecQ-WH (Escherichia coli, UniProt P15043); test: as above; set-up: species or system E. coli; conditions: H14 library; 1:1 binding assumed; read-out: Surface mapping KD (apparent)
T5 construct: coding for residues 408– 523 of E. coli RecQ; made in house; host or cells: E. coli BL21(DE3)
Outline: as §1

[6] = molecular target: T1, CaM; test: Competition pull-down with native ligand TRPV1-Ct15; type: binding, bovine; conditions: H14 library; competitor peptide 200 µM; read-out: Surface mapping KD (apparent), competition
[7] = molecular target: T4, S100B; test: Competition pull-down with native ligand RSK1 (689–735); type: binding; conditions: H14 library; competitor peptide 200 µM; read-out: Surface mapping KD (apparent), competition
[8] = molecular target: T5, RecQ-WH; test: Competition pull-down with native ligand SSB-Ct8; type: binding, E. coli; conditions: H14 library; competitor peptide 200 µM; read-out: Surface mapping KD (apparent), competition
[9] = molecular target: T2, Gal-1; test: Competition pull-down with lactose; type: binding; conditions: H14 library; lactose 10 mM; read-out: Surface mapping KD (apparent), competition
Outline: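 His6-tagged proteins immobilized on Co-NTA resin at 64 µM final with 64-member LSM foldamer sublibraries (1 M each, as printed) in pH 7.4 HEPES/NaCl buffers (Ca2+/TCEP per target), 30 min RT; competitor peptides 200 µM final, lactose 10 mM for Gal-1. Bound fractions from LC-MS loss vs protein-free resin; KD assuming 1:1 binding.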

[10] = molecular target: T3, S100A4; test: Competition pull-down with native ligand NMIIA (1893–1923); type: binding; conditions: H14 library; competitor peptide 200 µM; read-out: Surface mapping KD (apparent), competition

T5 sequence (P15043 408-523): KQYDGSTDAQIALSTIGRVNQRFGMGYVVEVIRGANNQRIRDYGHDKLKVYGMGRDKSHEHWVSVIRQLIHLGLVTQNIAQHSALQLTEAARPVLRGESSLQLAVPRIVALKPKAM
T3 sequence (P26447 whole entry): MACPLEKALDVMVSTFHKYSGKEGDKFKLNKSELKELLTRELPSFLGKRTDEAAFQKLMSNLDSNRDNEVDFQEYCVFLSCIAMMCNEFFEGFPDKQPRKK
T2 sequence (P09382 whole entry): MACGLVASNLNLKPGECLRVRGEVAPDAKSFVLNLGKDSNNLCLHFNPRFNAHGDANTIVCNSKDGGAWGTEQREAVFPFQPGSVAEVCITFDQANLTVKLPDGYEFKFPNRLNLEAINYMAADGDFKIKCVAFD

SMILES: CSCC[C@@H](CC(=O)N[C@H]1CCCC[C@@H]1C(N)=O)NC(=O)[C@H]1CCCC[C@@H]1NC(=O)[C@H]1CCCC[C@@H]1NC(=O)C[C@H](Cc1c[nH]c2ccccc12)NC(=O)[C@H]1CCCC[C@@H]1N [H14 WM]
- Kd [1]: 1.4 µM
- Kd [2]: 145 µM
- Kd [3]: 43 µM
- Kd [4]: 45 µM
- Kd [5]: 81 µM
- Kd [6]: 251 µM
- Kd [7]: 125 µM
- Kd [8]: 188 µM
- Kd [9]: 305 µM

SMILES: CC[C@H](C)[C@@H](CC(=O)N[C@H]1CCCC[C@@H]1C(N)=O)NC(=O)[C@H]1CCCC[C@@H]1NC(=O)[C@H]1CCCC[C@@H]1NC(=O)C[C@@H](NC(=O)[C@H]1CCCC[C@@H]1N)[C@@H](C)O [H14 TI]
- Kd [1]: 69 µM
- Kd [2]: 175 µM
- Kd [3]: 7 µM
- Binding ([3]; H14 probes): binds
- Affinity class of probe (high, medium, low) in pull-down [3]: high
- Kd [4]: 183 µM
- Binding ([4]; H14 probes): does not
- Affinity class of probe (high, medium, low) in pull-down [4]: low
- Kd [10]: 473 µM
- Kd [9]: 266 µM

SMILES: CC(C)[C@@H](CC(=O)N[C@H]1CCCC[C@@H]1C(N)=O)NC(=O)[C@H]1CCCC[C@@H]1NC(=O)[C@H]1CCCC[C@@H]1NC(=O)C[C@@H](NC(=O)[C@H]1CCCC[C@@H]1N)C(C)C [H14 VV]
- Kd [1]: 7 µM
- Kd [2]: 244 µM
- Kd [3]: 3 µM
- Kd [4]: 73 µM
- Kd [10]: 356 µM
- Kd [7]: 198 µM

SMILES: CC(C)C[C@@H](CC(=O)N[C@H]1CCCC[C@@H]1C(N)=O)NC(=O)[C@H]1CCCC[C@@H]1NC(=O)[C@H]1CCCC[C@@H]1NC(=O)C[C@@H](NC(=O)[C@H]1CCCC[C@@H]1N)[C@@H](C)O [H14 TL]
- Kd [1]: 69 µM
- Kd [2]: 175 µM
- Kd [3]: 7 µM
- Kd [4]: 183 µM
- Kd [10]: 473 µM
- Kd [9]: 266 µM

SMILES: NC(=O)[C@H]1CCCC[C@@H]1NC(=O)C[C@H](Cc1ccccc1)NC(=O)[C@H]1CCCC[C@@H]1NC(=O)[C@H]1CCCC[C@@H]1NC(=O)C[C@H](Cc1c[nH]c2ccccc12)NC(=O)[C@H]1CCCC[C@@H]1N [H14 WF]
- Kd [1]: 4 µM
- Kd [2]: 38 µM
- Kd [3]: 10 µM
- Kd [4]: 14 µM
- Kd [5]: 62 µM
- Kd [6]: 29 µM
- Kd [7]: 177 µM
- Kd [8]: 106 µM
- Kd [9]: 59 µM

SMILES: NC(=O)[C@H]1CCCC[C@@H]1NC(=O)C[C@H](Cc1ccccc1)NC(=O)[C@H]1CCCC[C@@H]1NC(=O)[C@H]1CCCC[C@@H]1NC(=O)C[C@H](Cc1ccccc1)NC(=O)[C@H]1CCCC[C@@H]1N [H14 FF]
- Kd [1]: 1.2 µM
- Kd [2]: 75 µM
- Kd [3]: 12 µM
- Kd [4]: 16 µM
- Kd [5]: 134 µM
- Kd [6]: 47 µM
- Kd [7]: 180 µM
- Kd [8]: 312 µM
- Kd [9]: 108 µM

SMILES: CC[C@H](C)[C@@H](CC(=O)N[C@H]1CCCC[C@@H]1C(=O)N[C@H]1CCCC[C@@H]1C(=O)N[C@@H](CCSC)CC(=O)N[C@H]1CCCC[C@@H]1C(N)=O)NC(=O)[C@H]1CCCC[C@@H]1N [H14 IM]
- Kd [1]: 11 µM
- Kd [2]: 238 µM
- Kd [3]: 3 µM
- Kd [4]: 47 µM
- Kd [5]: 340 µM
- Kd [10]: 217 µM
- Kd [7]: 163 µM

SMILES: CC(C)[C@@H](CC(=O)N[C@H]1CCCC[C@@H]1C(=O)N[C@H]1CCCC[C@@H]1C(=O)N[C@H](CC(=O)N[C@H]1CCCC[C@@H]1C(N)=O)Cc1c[nH]c2ccccc12)NC(=O)[C@H]1CCCC[C@@H]1N [H14 VW]
- Kd [1]: 13 µM
- Kd [2]: 98 µM
- Kd [3]: 11 µM
- Kd [4]: 16 µM
- Kd [5]: 221 µM
- Kd [6]: 153 µM
- Kd [7]: 60 µM
- Kd [8]: 452 µM
- Kd [9]: 211 µM

SMILES: CC(C)[C@@H](CC(=O)N[C@H]1CCCC[C@@H]1C(N)=O)NC(=O)[C@H]1CCCC[C@@H]1NC(=O)[C@H]1CCCC[C@@H]1NC(=O)C[C@H](Cc1ccc(O)cc1)NC(=O)[C@H]1CCCC[C@@H]1N [H14 YV]
- Kd [1]: 2 µM
- Kd [2]: 140 µM
- Kd [3]: 23 µM
- Kd [4]: 112 µM
- Kd [5]: 212 µM
- Kd [6]: 448 µM
- Kd [7]: 372 µM
- Kd [8]: 472 µM
- Kd [9]: 223 µM

SMILES: NC(=O)CC[C@@H](CC(=O)N[C@H]1CCCC[C@@H]1C(=O)N[C@H]1CCCC[C@@H]1C(=O)N[C@H](CC(=O)N[C@H]1CCCC[C@@H]1C(N)=O)Cc1c[nH]c2ccccc12)NC(=O)[C@H]1CCCC[C@@H]1N [H14 QW]
- Kd [1]: 27 µM
- Kd [2]: 169 µM
- Kd [4]: 79 µM
- Kd [5]: 143 µM
- Kd [6]: 168 µM
- Kd [7]: 473 µM
- Kd [8]: 341 µM
- Kd [9]: 183 µM

SMILES: NC(=O)[C@H]1CCCC[C@@H]1NC(=O)C[C@H](Cc1ccccc1)NC(=O)[C@H]1CCCC[C@@H]1NC(=O)[C@H]1CCCC[C@@H]1NC(=O)C[C@H](Cc1ccc(O)cc1)NC(=O)[C@H]1CCCC[C@@H]1N [H14 YF]
- Kd [1]: 2 µM
- Kd [2]: 162 µM
- Kd [3]: 25 µM
- Affinity class of probe (high, medium, low) in pull-down [3]: medium
- Kd [4]: 34 µM
- Affinity class of probe (high, medium, low) in pull-down [4]: medium
- Kd [5]: 84 µM
- Kd [6]: 119 µM
- Kd [7]: 149 µM
- Kd [8]: 400 µM
- Kd [9]: 234 µM

SMILES: CSCC[C@@H](CC(=O)N[C@H]1CCCC[C@@H]1C(N)=O)NC(=O)[C@H]1CCCC[C@@H]1NC(=O)[C@H]1CCCC[C@@H]1NC(=O)C[C@H](Cc1ccccc1)NC(=O)[C@H]1CCCC[C@@H]1N [H14 FM]
- Kd [1]: 2 µM
- Kd [2]: 284 µM
- Kd [3]: 22 µM
- Kd [4]: 19 µM
- Kd [5]: 225 µM
- Kd [6]: 109 µM
- Kd [7]: 352 µM
- Kd [8]: 454 µM
- Kd [9]: 250 µM

SMILES: CC(C)[C@@H](CC(=O)N[C@H]1CCCC[C@@H]1C(N)=O)NC(=O)[C@H]1CCCC[C@@H]1NC(=O)[C@H]1CCCC[C@@H]1NC(=O)C[C@H](Cc1c[nH]c2ccccc12)NC(=O)[C@H]1CCCC[C@@H]1N [H14 WV]
- Kd [1]: 2 µM
- Kd [2]: 143 µM
- Kd [3]: 13 µM
- Kd [4]: 16 µM
- Kd [5]: 102 µM
- Kd [6]: 85 µM
- Kd [7]: 116 µM
- Kd [8]: 268 µM
- Kd [9]: 224 µM

SMILES: N=C(N)NCCC[C@@H](CC(=O)N[C@H]1CCCC[C@@H]1C(=O)N[C@H]1CCCC[C@@H]1C(=O)N[C@H](CC(=O)N[C@H]1CCCC[C@@H]1C(N)=O)Cc1ccc(O)cc1)NC(=O)[C@H]1CCCC[C@@H]1N [H14 RY]
- Kd [1]: 16 µM
- Kd [3]: 112 µM
- Kd [4]: 40 µM
- Kd [10]: 324 µM

Reference: PMC8162404, “Proteomimetic surface fragments distinguish targets by function” (Chemical Science, 2020)
